{"source": "patent US20110046224A1", "about": "“METHODS TO ACCELERATE MUSCLE DEVELOPMENT, DECREASE FAT DEPOSITS, AND ENHANCE FEEDING EFFICIENCY IN PIGS” (BIOKAB, S.A. de C.V., priority 2009, published 2011)", "key": {"pigs for meat supply [1]": {"system": "pigs for meat supply", "assay": "Carcass quality of pigs fed supplemented food (body fat and lean efficiency estimated in vivo with Piglot 105)", "parameters": "species or system York-Landrace (YL) x Duroc (DC)", "settings": "for Average fat / LEAN EFFICIENCY: at approx. 100 kg, mean and standard deviation", "excerpt": "(§1) 30 pigs were used, 15 castrated males and 15 females obtained from a terminal breeding York-Landrace (YL)×Duroc (DC); at the beginning of the study, said pigs weighted 77.83±1.20 Kg and were approximately 18 weeks old. Pigs were kept in individual pens, and were randomly distributed to 3 treatments, with ten repetitions per treatment. Treatments were: a positive control, including 5 ppm of commercial ractopamine; a second treatment including 12 ppm of pure ferulic acid and a third treatment containing 15 ppm of substantially pure ferulic acid per ton of food. Pigs were weighted every seven days, studying the following variables: initial weight, weekly weight, and final weight of the pigs; daily food intake. This was used to estimate the daily, weekly and term weight gain, as well as food efficiency. When reaching the approximate weight of 100 kg, animals were evaluated in vivo (using Piglot 105, SFK-Technology, Netherlands) in order to estimate the amount of body fat and lean efficiency. Results were evaluated randomly, using SAS general linear models procedures."}, "pigs for meat supply [2]": {"system": "pigs for meat supply", "assay": "Production characteristics of finishing pigs fed supplemented food (weight, weight gain, food intake, food conversion)", "type": "in vivo, York-Landrace (YL) x Duroc (DC)", "settings": "for DAILY GAIN / WEIGHT GAIN / FINAL WEIGHT / AVERAGE INTAKE / TOTAL INTAKE: mean and standard deviation; for AVERAGE INTAKE: daily average food intake; for CONVERSION: food conversion; for TOTAL INTAKE: food intake", "excerpt": "as §1"}, "pigs for meat supply [3]": {"system": "pigs for meat supply", "assay": "Production characteristics of finishing pigs fed supplemented food (weight, weight gain, food intake, food conversion)", "type": "in vivo, York-Landrace (YL) x Duroc (DC)", "settings": "supplemented pigs vs untreated control group"}}}
{"smiles": "COc1cc(/C=C/C(=O)O)ccc1O", "note": "[Pure ferulic acid, trans-4-hydroxy-3-methoxy cinnamic acid]", "values": [{"measurement": "CARCASS EFFICIENCY", "setting": "pigs for meat supply [1]; 12 ppm in food", "result": 88.01, "unit": "%"}, {"measurement": "EFFICIENCY IN CUTS", "setting": "pigs for meat supply [1]; 12 ppm in food", "result": 49.66, "unit": "%"}, {"measurement": "Average fat", "setting": "pigs for meat supply [1]; 12 ppm in food", "result": "13.5 ± 3.58", "unit": "mm"}, {"measurement": "LEAN EFFICIENCY", "setting": "pigs for meat supply [1]; 12 ppm in food", "result": "56.24 ± 3.58", "unit": "%"}, {"measurement": "DAILY GAIN", "setting": "pigs for meat supply [2]; 12 ppm in food", "result": "0.873 ± .20 kg"}, {"measurement": "WEIGHT GAIN", "setting": "pigs for meat supply [2]; 12 ppm in food", "result": "24.45 ± 5.64", "unit": "kg"}, {"measurement": "FINAL WEIGHT", "setting": "pigs for meat supply [2]; 12 ppm pure ferulic acid in food, start 79.4 Kg", "result": "103.85 ± 7.63", "unit": "kg"}, {"measurement": "AVERAGE INTAKE", "setting": "pigs for meat supply [2]; 12 ppm in food", "result": "2.34 ± .40 kg"}, {"measurement": "CONVERSION", "setting": "pigs for meat supply [2]; 12 ppm in food", "result": 2.68}, {"measurement": "TOTAL INTAKE", "setting": "pigs for meat supply [2]; 12 ppm in food", "result": "81.75 ± 14.00", "unit": "kg"}]}
{"smiles": "CC(CCc1ccc(O)cc1)NCC(O)c1ccc(O)cc1", "note": "(stereo not shown) [Ractopamine, ractopamine, reference compound]", "values": [{"measurement": "intake of total food and daily average compared to the control group (untreated)", "setting": "pigs for meat supply [3]", "result": "lower intake"}, {"measurement": "CARCASS EFFICIENCY", "setting": "pigs for meat supply [1]; 5 ppm in food", "result": 87.08, "unit": "%"}, {"measurement": "EFFICIENCY IN CUTS", "setting": "pigs for meat supply [1]; 5 ppm in food", "result": 51.69, "unit": "%"}, {"measurement": "Average fat", "setting": "pigs for meat supply [1]; 5 ppm in food", "result": "9.67 ± 1.11", "unit": "mm"}, {"measurement": "LEAN EFFICIENCY", "setting": "pigs for meat supply [1]; 5 ppm in food", "result": "58.98 ± 2.20", "unit": "%"}, {"measurement": "FINAL WEIGHT", "setting": "pigs for meat supply [2]; 5 ppm commercial ractopamine in food, start 77.33 Kg", "result": "105.28 ± 4.98", "unit": "kg"}, {"measurement": "DAILY GAIN", "setting": "pigs for meat supply [2]; 5 ppm in food", "result": "1.00 ± .08 kg"}, {"measurement": "WEIGHT GAIN", "setting": "pigs for meat supply [2]; 5 ppm in food", "result": "27.94 ± 3.20", "unit": "kg"}, {"measurement": "AVERAGE INTAKE", "setting": "pigs for meat supply [2]; 5 ppm in food", "result": "2.35 ± .33 kg"}, {"measurement": "CONVERSION", "setting": "pigs for meat supply [2]; 5 ppm in food", "result": 2.32}, {"measurement": "TOTAL INTAKE", "setting": "pigs for meat supply [2]; 5 ppm in food", "result": "82.33 ± 11.31", "unit": "kg"}]}
{"smiles": "COc1cc(/C=C/C(=O)O)ccc1O", "note": "[Substantially pure ferulic acid, trans-ferulic acid]", "values": [{"measurement": "CARCASS EFFICIENCY", "setting": "pigs for meat supply [1]; 15 ppm in food", "result": 89.26, "unit": "%"}, {"measurement": "EFFICIENCY IN CUTS", "setting": "pigs for meat supply [1]; 15 ppm in food", "result": 50.88, "unit": "%"}, {"measurement": "Average fat", "setting": "pigs for meat supply [1]; 15 ppm in food", "result": "9.60 ± .34 mm"}, {"measurement": "LEAN EFFICIENCY", "setting": "pigs for meat supply [1]; 15 ppm in food", "result": "59.66 ± 3.14", "unit": "%"}, {"measurement": "DAILY GAIN", "setting": "pigs for meat supply [2]; 15 ppm in food", "result": "1.04 ± .20 kg"}, {"measurement": "WEIGHT GAIN", "setting": "pigs for meat supply [2]; 15 ppm in food", "result": "29.25 ± 5.70", "unit": "kg"}, {"measurement": "FINAL WEIGHT", "setting": "pigs for meat supply [2]; 15 ppm substantially pure ferulic acid in food, start 78.2 Kg", "result": "107.47 ± 6.84", "unit": "kg"}, {"measurement": "AVERAGE INTAKE", "setting": "pigs for meat supply [2]; 15 ppm in food", "result": "2.30 ± .26 kg"}, {"measurement": "CONVERSION", "setting": "pigs for meat supply [2]; 15 ppm in food", "result": 2.21}, {"measurement": "TOTAL INTAKE", "setting": "pigs for meat supply [2]; 15 ppm in food", "result": "80.57 ± 8.13", "unit": "kg"}]}
{"smiles": "COc1cc(/C=C/C(=O)O)ccc1O", "note": "[ferulic acid]", "values": [{"measurement": "intake of total food and daily average compared to the control group (untreated)", "setting": "pigs for meat supply [3]", "result": "lower intake"}, {"measurement": "amount of dorsal fat (in words)", "setting": "pigs for meat supply [1]; pigs fed with 15 ppm", "result": "lower amount of dorsal fat"}, {"measurement": "lean efficiency (in words)", "setting": "pigs for meat supply [1]; pigs fed with 15 ppm", "result": "better lean efficiency"}]}
